Experimental data reported in BindingDB's records for doi:10.3109/10799899109064686 (Center For Bio-Pharmaceutical Sciences, 1991).

Legend:
[1] = biological target: 5-hydroxytryptamine receptor 1B (Rattus norvegicus, UniProt P28564)
[2] = biological target: T1, Muscarinic acetylcholine receptor M1 (Rattus norvegicus, UniProt P08482)
T1 sequence (P08482 whole entry): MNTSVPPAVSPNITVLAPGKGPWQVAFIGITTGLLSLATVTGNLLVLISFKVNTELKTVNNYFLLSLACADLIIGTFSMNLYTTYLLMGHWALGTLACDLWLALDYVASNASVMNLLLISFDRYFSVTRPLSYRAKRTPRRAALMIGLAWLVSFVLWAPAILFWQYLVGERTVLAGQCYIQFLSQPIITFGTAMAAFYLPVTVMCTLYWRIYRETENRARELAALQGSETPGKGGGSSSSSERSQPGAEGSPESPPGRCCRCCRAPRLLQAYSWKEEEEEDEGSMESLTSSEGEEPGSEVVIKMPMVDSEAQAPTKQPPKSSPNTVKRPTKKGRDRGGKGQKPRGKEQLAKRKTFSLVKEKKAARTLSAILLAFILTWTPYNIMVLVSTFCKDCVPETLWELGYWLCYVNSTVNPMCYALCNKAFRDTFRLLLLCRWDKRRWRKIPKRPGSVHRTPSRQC

[3] = biological target: 5-hydroxytryptamine receptor 2A (Rattus norvegicus, UniProt P14842)
Sequence of 5-hydroxytryptamine receptor 2A (P14842 whole entry): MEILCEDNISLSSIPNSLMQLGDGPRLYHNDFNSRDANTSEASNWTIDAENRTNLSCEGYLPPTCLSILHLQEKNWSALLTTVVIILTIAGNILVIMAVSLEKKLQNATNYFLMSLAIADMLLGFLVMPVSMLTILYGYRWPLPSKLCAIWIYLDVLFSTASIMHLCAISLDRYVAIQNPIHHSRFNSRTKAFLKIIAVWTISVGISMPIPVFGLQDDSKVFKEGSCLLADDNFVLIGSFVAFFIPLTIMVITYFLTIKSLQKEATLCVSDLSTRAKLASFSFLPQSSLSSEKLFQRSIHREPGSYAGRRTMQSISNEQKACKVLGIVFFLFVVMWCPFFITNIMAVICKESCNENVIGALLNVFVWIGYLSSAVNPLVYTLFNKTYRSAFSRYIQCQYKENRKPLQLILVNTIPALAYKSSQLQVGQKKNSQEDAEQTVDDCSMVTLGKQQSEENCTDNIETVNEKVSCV

[4] = biological target: Sodium-dependent serotonin transporter (Rattus norvegicus, UniProt P31652)
Sequence of Sodium-dependent serotonin transporter (P31652 whole entry): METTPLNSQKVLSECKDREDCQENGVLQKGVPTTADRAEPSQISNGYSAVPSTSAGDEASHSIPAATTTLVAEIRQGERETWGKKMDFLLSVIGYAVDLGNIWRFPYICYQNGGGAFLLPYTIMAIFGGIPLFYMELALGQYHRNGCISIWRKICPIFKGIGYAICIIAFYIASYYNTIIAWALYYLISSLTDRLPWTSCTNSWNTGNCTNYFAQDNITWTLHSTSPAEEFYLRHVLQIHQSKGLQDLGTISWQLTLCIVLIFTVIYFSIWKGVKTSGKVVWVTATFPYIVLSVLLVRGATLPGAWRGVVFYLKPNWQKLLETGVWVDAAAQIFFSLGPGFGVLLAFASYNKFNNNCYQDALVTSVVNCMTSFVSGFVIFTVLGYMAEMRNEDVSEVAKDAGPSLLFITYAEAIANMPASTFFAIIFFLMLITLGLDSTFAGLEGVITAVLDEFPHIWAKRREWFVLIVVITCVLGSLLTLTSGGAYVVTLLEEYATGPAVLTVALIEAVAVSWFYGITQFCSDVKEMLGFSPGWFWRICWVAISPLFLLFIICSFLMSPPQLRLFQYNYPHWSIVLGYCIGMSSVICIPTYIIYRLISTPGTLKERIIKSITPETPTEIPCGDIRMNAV

Sequence of 5-hydroxytryptamine receptor 1B (P28564 whole entry): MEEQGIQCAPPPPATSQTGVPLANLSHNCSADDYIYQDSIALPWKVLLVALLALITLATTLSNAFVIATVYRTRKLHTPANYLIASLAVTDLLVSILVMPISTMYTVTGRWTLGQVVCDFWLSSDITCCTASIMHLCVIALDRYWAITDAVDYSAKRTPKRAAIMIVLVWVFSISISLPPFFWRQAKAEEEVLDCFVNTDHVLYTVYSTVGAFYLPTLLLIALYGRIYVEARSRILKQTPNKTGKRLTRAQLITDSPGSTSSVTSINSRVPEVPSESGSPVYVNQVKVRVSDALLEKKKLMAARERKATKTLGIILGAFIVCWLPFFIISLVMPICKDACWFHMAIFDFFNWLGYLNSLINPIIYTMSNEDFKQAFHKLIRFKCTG

Ki [1] [µM]	Ki [2] [µM]	Ki [3] [µM]	Ki [4] [µM]	Structure (SMILES)
> 10	3.6	0.4	7.9	N=C(N)NC(=O)c1nc(Cl)c(N2CCCCCC2)nc1N
> 10	2.9	1.4	1.9	NC(=NCc1ccccc1)NC(=O)c1nc(Cl)c(N)nc1N [NSC_108107]

Structure (SMILES)	Ki [1] [µM]	Ki [2] [µM]	Ki [3] [µM]	Ki [4] [µM]
N=C(N)NC(=O)c1nc(Cl)c(N)nc1N [3,5-diamino-N-carbamimidoyl-6-chloropyrazine-2-carboxamide]	> 10	> 10	> 10	
